Legend:
[1] = test system: HCV replicon cells Huh 9B; test: HCV replicon assay (luciferase readout); assay type: cell-based; conditions: Hepatitis C virus, concentration reducing replicon level (luciferase activity) by 50% vs untreated cell control, 72 h incubation
Summary of the method: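 Compounds, made up at twice final strength (final DMSO 1%), were added to subgenomic replicon cells one day after plating. Incubation then ran 72 h at 37 °C, 5% CO2, without G418. Replication was quantified as firefly luciferase luminescence in lysed cells, with cytotoxicity assessed on a duplicate clear plate.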

[2] = test system: HCV replicon cells Huh 9B; assay type: cell-based; conditions: concentration reducing total cell area by 50% relative to DMSO controls; methylene blue, absorbance 620 nm; 72 h incubation

Row | Compound | IC50 ([1]; 72 h) [nM] | TD50 [2] | IC50 [1] [nM]
1 | CC(=O)Nc1ccc(C)c(-c2ccc(C(=O)Nc3ccc(CN4CCS(=O)(=O)CC4)cc3)cc2)c1 [Example 180, 5′-Acetylamino-2′-methyl-biphenyl-4-carboxylic acid [4-(1,1-dioxo-1lambda*6*-thiomorpholin-4-ylmethyl)-phenyl]-amide] | < 1000 | * (* < 50 μM) | –
2 | CCC(CC)C(=O)Nc1ccc(C)c(-c2ccc(C(=O)Nc3ccc(CN4CCS(=O)(=O)CC4)cc3)cc2)c1 [Example 181, 5′-(2-Ethyl-butyrylamino)-2′-methyl-biphenyl-4-carboxylic acid [4-(1,1-dioxo-1lambda*6*-thiomorpholin-4-ylmethyl)-phenyl]-amide] | < 1000 | * (* < 50 μM) | –
3 | CCCC(=O)Nc1ccc(C)c(-c2ccc(C(=O)Nc3ccc(CN4CCS(=O)(=O)CC4)cc3)cc2)c1 [Example 182, 5′-Butyrylamino-2′-methyl-biphenyl-4-carboxylic acid [4-(1,1-dioxo-1lambda*6*-thiomorpholin-4-ylmethyl)-phenyl]-amide] | < 1000 | * (* < 50 μM) | –
4 | Cc1ccc(NC(=O)C(C)C)cc1-c1ccc(C(=O)Nc2ccc(CN3CCS(=O)(=O)CC3)cc2)cc1 [Example 183, 5′-Isobutyrylamino-2′-methyl-biphenyl-4-carboxylic acid [4-(1,1-dioxo-1lambda*6*-thiomorpholin-4-ylmethyl)-phenyl]-amide] | < 1000 | * (* < 50 μM) | –
5 | Cc1ccc(NC(=O)C(C)(C)C)cc1-c1ccc(C(=O)Nc2ccc(CN3CCS(=O)(=O)CC3)cc2)cc1 [Example 184, 5′-(2,2-Dimethyl-propionylamino)-2′-methyl-biphenyl-4-carboxylic acid [4-(1,1-dioxo-1lambda*6*-thiomorpholin-4-ylmethyl)-phenyl]-amide] | < 1000 | * (* < 50 μM) | –
6 | O=C(Nc1ccc(CN2CCS(=O)(=O)CC2)cc1)c1ccc(-c2cc(NC(=O)C3CC3)ccc2OC(F)(F)F)cc1 [Example 185, 5′-(Cyclopropanecarbonyl-amino)-2′-trifluoromethoxy-biphenyl-4-carboxylic acid [4-(1,1-dioxo-1lambda*6*-thiomorpholin-4-ylmethyl)-phenyl]-amide] | < 1000 | * (* < 50 μM) | –
7 | COc1ccc(NC(=O)C2CC2)cc1-c1ccc(C(=O)Nc2ccc(CN3CCS(=O)(=O)CC3)cc2)cc1 [Example 186, 5′-(Cyclopropanecarbonyl-amino)-2′-methoxy-biphenyl-4-carboxylic acid [4-(1,1-dioxo-1lambda*6*-thiomorpholin-4-ylmethyl)-phenyl]-amide] | < 1000 | * (* < 50 μM) | –
8 | COc1ccc(NC(=O)C2CCCCC2)cc1-c1ccc(C(=O)Nc2ccc(CN3CCS(=O)(=O)CC3)cc2)cc1 [Example 187, 5′-(Cyclohexanecarbonyl-amino)-2′-methoxy-biphenyl-4-carboxylic acid [4-(1,1-dioxo-1lambda*6*-thiomorpholin-4-ylmethyl)-phenyl]-amide] | < 1000 | * (* < 50 μM) | –
9 | CCNC(=O)Nc1ccc(C)c(-c2ccc(C(=O)Nc3ccc(CN4CCS(=O)(=O)CC4)cc3)cc2)c1 [Example 188, 5′-(3-Ethyl-ureido)-2′-methyl-biphenyl-4-carboxylic acid [4-(1,1-dioxo-1lambda*6*-thiomorpholin-4-ylmethyl)-phenyl]-amide] | < 1000 | * (* < 50 μM) | –
10 | Cc1ccc(NC(=O)NC2CCCCC2)cc1-c1ccc(C(=O)Nc2ccc(CN3CCS(=O)(=O)CC3)cc2)cc1 [Example 189, 5′-(3-Cyclohexyl-ureido)-2′-methyl-biphenyl-4-carboxylic acid [4-(1,1-dioxo-1lambda*6*-thiomorpholin-4-ylmethyl)-phenyl]-amide] | < 1000 | * (* < 50 μM) | –
11 | CC(=O)C(=O)Nc1ccc(C)c(-c2ccc(C(=O)Nc3ccc(CN4CCS(=O)(=O)CC4)cc3)cc2)c1 [Example 190, 2′-Methyl-5′-(2-oxo-propionylamino)-biphenyl-4-carboxylic acid [4-(1,1-dioxo-1lambda*6*-thiomorpholin-4-ylmethyl)-phenyl]-amide] | < 1000 | * (* < 50 μM) | –
12 | O=C(Nc1ccc(CN2CCS(=O)(=O)CC2)cc1)c1ccc(-c2cc(NC(=O)C3CCCCC3)ccc2F)cc1 [Example 191, 5′-(Cyclohexanecarbonyl-amino)-2′-fluoro-biphenyl-4-carboxylic acid [4-(1,1-dioxo-1lambda*6*-thiomorpholin-4-ylmethyl)-phenyl]-amide] | > 5000 | * (* < 50 μM) | –
13 | O=C(Nc1ccc(CN2CCS(=O)(=O)CC2)cc1)c1ccc(-c2cc(NC(=O)C3CCCCC3)ccc2OC(F)(F)F)cc1 [Example 192, 5′-(Cyclohexanecarbonyl-amino)-2′-trifluoromethoxy-biphenyl-4-carboxylic acid [4-(1,1-dioxo-1lambda*6*-thiomorpholin-4-ylmethyl)-phenyl]-amide] | < 1000 | * (* < 50 μM) | –
14 | O=C(Nc1ccc(CN2CCS(=O)(=O)CC2)cc1)c1ccc(-c2cc(NC(=O)C3CCCCC3)ccc2Cl)cc1 [Example 193, 5′-(Cyclohexanecarbonyl-amino)-2′-chloro-biphenyl-4-carboxylic acid [4-(1,1-dioxo-1lambda*6*-thiomorpholin-4-ylmethyl)-phenyl]-amide] | < 1000 | * (* < 50 μM) | –
15 | O=C(Nc1ccc(CN2CCS(=O)(=O)CC2)cc1)c1ccc(-c2cc(NC(=O)C3CC3)ccc2Cl)cc1 [Example 194, 2′-Chloro-5′-(cyclopropanecarbonyl-amino)-biphenyl-4-carboxylic acid [4-(1,1-dioxo-1lambda*6*-thiomorpholin-4-ylmethyl)-phenyl]-amide] | < 1000 | * (* < 50 μM) | –
16 | Cc1ccc(NC(=O)C2CCC2)cc1-c1ccc(C(=O)Nc2ccc(CN3CCS(=O)(=O)CC3)cc2)cc1 [Example 195, 5′-(Cyclobutanecarbonyl-amino)-2′-methyl-biphenyl-4-carboxylic acid [4-(1,1-dioxo-1lambda*6*-thiomorpholin-4-ylmethyl)-phenyl]-amide] | < 1000 | * (* < 50 μM) | –
17 | O=C(Nc1ccc(CN2CCS(=O)(=O)CC2)cc1)c1ccc(-c2cccc(NC(=O)C3CCCCC3)c2)cc1 [Example 196, 3′-(Cyclohexanecarbonyl-amino)-biphenyl-4-carboxylic acid [4-(1,1-dioxo-1lambda*6*-thiomorpholin-4-ylmethyl)-phenyl]-amide] | 1000 to 5000 | * (* < 50 μM) | –
18 | Cc1ccc(CNc2ccc3cn[nH]c3c2)cc1-c1ccc(C(=O)Nc2ccc(CN3CCS(=O)(=O)CC3)cc2)cc1 [Example 197, 5′-[(1H-Indazol-6-ylamino)-methyl]-2′-methyl-biphenyl-4-carboxylic acid [4-(1,1-dioxo-1lambda*6*-thiomorpholin-4-ylmethyl)-phenyl]-amide] | < 1000 | ** (** > 50 μM) | –
19 | Cc1ccc(CNc2cccc(Br)c2)cc1-c1ccc(C(=O)Nc2ccc(CN3CCS(=O)(=O)CC3)cc2)cc1 [Example 198, 5′-[(3-Bromo-phenylamino)-methyl]-2′-methyl-biphenyl-4-carboxylic acid [4-(1,1-dioxo-1lambda*6*-thiomorpholin-4-ylmethyl)-phenyl]-amide] | 1000 to 5000 | * (* < 50 μM) | –
20 | Cc1ccc(CNCc2cccc(Cl)c2)cc1-c1ccc(C(=O)Nc2ccc(CN3CCS(=O)(=O)CC3)cc2)cc1 [Example 199, 5′-[(3-Chloro-benzylamino)-methyl]-2′-methyl-biphenyl-4-carboxylic acid [4-(1,1-dioxo-1lambda*6*-thiomorpholin-4-ylmethyl)-phenyl]-amide] | – | * (* < 50 μM) | 1000 to 5000
21 | Cc1ccc(CNC(CO)Cc2cnc[nH]2)cc1-c1ccc(C(=O)Nc2ccc(CN3CCS(=O)(=O)CC3)cc2)cc1 (centres unmarked) [Example 200, 5′-{[1-Hydroxymethyl-2-(3H-imidazol-4-yl)-ethylamino]-methyl}-2′-methyl-biphenyl-4-carboxylic acid [4-(1,1-dioxo-1lambda*6*-thiomorpholin-4-ylmethyl)-phenyl]-amide] | > 5000 | ** (** > 50 μM) | –
22 | Cc1ccc(NS(=O)(=O)c2ccc(Cl)cc2)cc1-c1ccc(C(=O)Nc2ccc(CN3CCS(=O)(=O)CC3)cc2)cc1 [Example 202, 5′-(4-Chloro-benzenesulfonylamino)-2′-methyl-biphenyl-4-carboxylic acid [4-(1,1-dioxo-1lambda*6*-thiomorpholin-4-ylmethyl)-phenyl]-amide] | 1000 to 5000 | ** (** > 50 μM) | –
23 | Cc1ccc(NS(=O)(=O)c2ccc(N3CCOCC3)nc2)cc1-c1ccc(C(=O)Nc2ccc(CN3CCS(=O)(=O)CC3)cc2)cc1 [Example 203, 2′-Methyl-5′-(6-morpholin-4-yl-pyridine-3-sulfonylamino)-biphenyl-4-carboxylic acid [4-(1,1-dioxo-1lambda*6*-thiomorpholin-4-ylmethyl)-phenyl]-amide] | 1000 to 5000 | * (* < 50 μM) | –
24 | Cc1ccc(NS(=O)(=O)c2ccc(Cl)s2)cc1-c1ccc(C(=O)Nc2ccc(CN3CCS(=O)(=O)CC3)cc2)cc1 [Example 204, 5′-(5-Chloro-thiophene-2-sulfonylamino)-2′-methyl-biphenyl-4-carboxylic acid [4-(1,1-dioxo-1lambda*6*-thiomorpholin-4-ylmethyl)-phenyl]-amide] | 1000 to 5000 | * (* < 50 μM) | –
25 | Cc1ccc(-c2noc(C3CC3)n2)cc1-c1ccc(C(=O)Nc2ccc(CN3CCS(=O)(=O)CC3)cc2)cc1 [Example 205, 5′-(5-Cyclopropyl-[1,2,4]oxadiazol-3-yl)-2′-methyl-biphenyl-4-carboxylic acid [4-(1,1-dioxo-1lambda*6*-thiomorpholin-4-ylmethyl)-phenyl]-amide] | > 5000 | * (* < 50 μM) | –

Source: US8008303B2, “Biphenyl derivatives and their use in treating hepatitis C” (AstraZeneca AB, priority 2005, dated 2011)
